Organism: Cavia porcellus
Test: Inhibitory activity of the Compound was tested against U-46619 induced contraction of guinea pig trachea at 2*10e-6 M concentration.
Assay type: functional

| Structure (SMILES) | Inhibition |
| --- | --- |
| CC(C)C(=O)C1=C(O)C(C)(C)C(O)=C(C(=O)C(C)C)C1=O | 61.2% |
| CCCC(=O)c1c(O)cc(O)c(C(=O)CCC)c1O | 57% |
| CCC(C)C(=O)c1c(O)cc(O)c(C(=O)C(C)CC)c1O (centres undefined) | 34.7% |
| CC(C)CC(=O)c1c(O)cc(O)c(C(=O)CC(C)C)c1O | 42% |

Organism: Cavia porcellus
Test: Inhibitory activity of the Compound was tested against U-46619 induced contraction of guinea pig trachea at 2*10e-7 M concentration.
Assay type: functional

| Structure (SMILES) | Inhibition |
| --- | --- |
| CCCC(=O)c1c(O)cc(O)c(C(=O)CCC)c1O | 8.4% |
| CC(C)CC(=O)c1c(O)cc(O)c(C(=O)CC(C)C)c1O | 22.6% |

Organism: Cavia porcellus
Test: Inhibitory activity of the Compound was tested against U-46619 induced contraction of guinea pig trachea at 3*10e-6 M concentration.
Assay type: functional

| Structure (SMILES) | Inhibition |
| --- | --- |
| CC(C)C(=O)C1=C(O)C(C)(C)C(O)=C(C(=O)C(C)C)C1=O | 80.2% |
| CC(C)CC(=O)c1c(O)cc(O)cc1O | 22.7% |
| CCCCC1(CCCC)C(=O)C(C(=O)C(C)C)=C(O)C(C(=O)C(C)C)=C1O | 58.6% |
| CCCC1(CCC)C(=O)C(C(=O)C(C)C)=C(O)C(C(=O)C(C)C)=C1O | 25.3% |
| CCCCCC1(CCCCC)C(=O)C(C(=O)C(C)C)=C(O)C(C(=O)C(C)C)=C1O | 17% |
| CCC(C)C(=O)c1c(O)cc(O)cc1O (centres undefined) | 13.8% |
| CC(C)C(=O)c1c(O)cc(O)cc1O [PHLOROISOBUTYROPHENONE] | 11% |

Organism: Cavia porcellus
Test: Inhibitory activity of the Compound was tested against U-46619 induced contraction of 2*10e-5 M concentration.
Assay type: functional

| Structure (SMILES) | Inhibition |
| --- | --- |
| CCCC(=O)c1c(O)cc(O)c(C(=O)CCC)c1O | 72.5% |

Organism: Cavia porcellus
Test: Inhibitory activity of the Compound was tested against U-46619 induced contraction of guinea pig trachea at 1*10e-5 M concentration.
Assay type: functional

| Structure (SMILES) | Inhibition |
| --- | --- |
| CC(C)CC(=O)c1c(O)cc(O)cc1O | 96.6% |
| CCC(C)C(=O)c1c(O)cc(O)cc1O (centres undefined) | 76.3% |
| CC(C)C(=O)c1c(O)cc(O)cc1O [PHLOROISOBUTYROPHENONE] | 70.4% |

Organism: Cavia porcellus
Test: Inhibitory activity of the Compound was tested against U-46619 induced contraction of guinea pig trachea at 2 *10e-7 M concentration.
Assay type: functional

| Structure (SMILES) | Inhibition |
| --- | --- |
| CC(C)C(=O)C1=C(O)C(C)(C)C(O)=C(C(=O)C(C)C)C1=O | 38.5% |

Organism: Cavia porcellus
Test: Inhibitory activity of the Compound was tested against U-46619 induced contraction of guinea pig trachea at 2*10e-5 M concentration.
Assay type: functional

| Structure (SMILES) | Inhibition |
| --- | --- |
| CCCCC1(CCCC)C(=O)C(C(=O)C(C)C)=C(O)C(C(=O)C(C)C)=C1O | 91.6% |
| CCCC1(CCC)C(=O)C(C(=O)C(C)C)=C(O)C(C(=O)C(C)C)=C1O | 81.7% |
| CCCCCC1(CCCCC)C(=O)C(C(=O)C(C)C)=C(O)C(C(=O)C(C)C)=C1O | 80.4% |
| CCC(C)C(=O)c1c(O)cc(O)c(C(=O)C(C)CC)c1O (centres undefined) | 98% |
| CC(C)CC(=O)c1c(O)cc(O)c(C(=O)CC(C)C)c1O | 100% |

Organism: Cavia porcellus
Test: Inhibitory activity of the Compound was tested against LTD4 induced contraction of guinea pig trachea at 1*10e-5 M concentration.
Assay type: functional

| Structure (SMILES) | Inhibition |
| --- | --- |
| CC(C)C(=O)c1c(O)cc(O)cc1O [PHLOROISOBUTYROPHENONE] | 32% |

Organism: Cavia porcellus
Test: Inhibitory activity of the Compound was tested against LTD4 induced contraction of guinea pig trachea at 2*10e-5 M concentration.
Assay type: functional

| Structure (SMILES) | Inhibition |
| --- | --- |
| CCCC(=O)c1c(O)cc(O)c(C(=O)CCC)c1O | 87% |
| CCCCC1(CCCC)C(=O)C(C(=O)C(C)C)=C(O)C(C(=O)C(C)C)=C1O | 100% |
| CCCC1(CCC)C(=O)C(C(=O)C(C)C)=C(O)C(C(=O)C(C)C)=C1O | 88.5% |
| CCCCCC1(CCCCC)C(=O)C(C(=O)C(C)C)=C(O)C(C(=O)C(C)C)=C1O | 95% |
| CCC(C)C(=O)c1c(O)cc(O)c(C(=O)C(C)CC)c1O (centres undefined) | 80.1% |
| CC(C)CC(=O)c1c(O)cc(O)c(C(=O)CC(C)C)c1O | 100% |

Organism: Cavia porcellus
Test: Inhibitory activity of the Compound was tested against LTD4 induced contraction of guinea pig trachea at 2*10e-6 M concentration.
Assay type: functional

| Structure (SMILES) | Inhibition |
| --- | --- |
| CC(C)C(=O)C1=C(O)C(C)(C)C(O)=C(C(=O)C(C)C)C1=O | 60.7% |
| CCCC(=O)c1c(O)cc(O)c(C(=O)CCC)c1O | 59.4% |
| CCC(C)C(=O)c1c(O)cc(O)c(C(=O)C(C)CC)c1O (centres undefined) | 45.5% |
| CC(C)CC(=O)c1c(O)cc(O)c(C(=O)CC(C)C)c1O | 78.2% |

Organism: Cavia porcellus
Test: Inhibitory activity of the Compound was tested against LTD4 induced contraction of guinea pig trachea at 2*10e-7 M concentration.
Assay type: functional

| Structure (SMILES) | Inhibition |
| --- | --- |
| CC(C)C(=O)C1=C(O)C(C)(C)C(O)=C(C(=O)C(C)C)C1=O | 36.8% |
| CCCC(=O)c1c(O)cc(O)c(C(=O)CCC)c1O | 12.5% |
| CC(C)CC(=O)c1c(O)cc(O)c(C(=O)CC(C)C)c1O | 29.9% |

Organism: Cavia porcellus
Test: Inhibitory activity of the Compound was tested against LTD4 induced contraction of guinea pig trachea at 3*10e-6 M concentration.
Assay type: functional

| Structure (SMILES) | Inhibition |
| --- | --- |
| CC(C)C(=O)C1=C(O)C(C)(C)C(O)=C(C(=O)C(C)C)C1=O | 87% |
| CCCCC1(CCCC)C(=O)C(C(=O)C(C)C)=C(O)C(C(=O)C(C)C)=C1O | 66.5% |
| CCCC1(CCC)C(=O)C(C(=O)C(C)C)=C(O)C(C(=O)C(C)C)=C1O | 28.5% |
| CCCCCC1(CCCCC)C(=O)C(C(=O)C(C)C)=C(O)C(C(=O)C(C)C)=C1O | 58.3% |

Organism: Cavia porcellus
Test: Inhibitory concentration of the Compound was tested against LTD4 induced contraction of guinea pig trachea.
Assay type: functional

| Structure (SMILES) | IC50 |
| --- | --- |
| CC(C)C(=O)C1=C(O)C(C)(C)C(O)=C(C(=O)C(C)C)C1=O | 570 nM |
| CCCC(=O)c1c(O)cc(O)c(C(=O)CCC)c1O | 1400 nM |
| CCCCC1(CCCC)C(=O)C(C(=O)C(C)C)=C(O)C(C(=O)C(C)C)=C1O | 1200 nM |
| CCCC1(CCC)C(=O)C(C(=O)C(C)C)=C(O)C(C(=O)C(C)C)=C1O | 5900 nM |
| CCCCCC1(CCCCC)C(=O)C(C(=O)C(C)C)=C(O)C(C(=O)C(C)C)=C1O | 2300 nM |
| CCC(C)C(=O)c1c(O)cc(O)c(C(=O)C(C)CC)c1O (centres undefined) | 1400 nM |
| CC(C)CC(=O)c1c(O)cc(O)c(C(=O)CC(C)C)c1O | 560 nM |

Organism: Cavia porcellus
Test: Inhibitory activity of the Compound was tested against U-46619 induced contraction of guinea pig trachea.
Assay type: functional

| Structure (SMILES) | IC50 |
| --- | --- |
| CC(C)C(=O)C1=C(O)C(C)(C)C(O)=C(C(=O)C(C)C)C1=O | 0.58 µM |
| CC(C)CC(=O)c1c(O)cc(O)cc1O | 4.7 µM |
| CCCC(=O)c1c(O)cc(O)c(C(=O)CCC)c1O | 2.7 µM |
| CCCCC1(CCCC)C(=O)C(C(=O)C(C)C)=C(O)C(C(=O)C(C)C)=C1O | 1.8 µM |
| CCCC1(CCC)C(=O)C(C(=O)C(C)C)=C(O)C(C(=O)C(C)C)=C1O | 6.9 µM |
| CCCCCC1(CCCCC)C(=O)C(C(=O)C(C)C)=C(O)C(C(=O)C(C)C)=C1O | 5.6 µM |
| CCC(C)C(=O)c1c(O)cc(O)c(C(=O)C(C)CC)c1O (centres undefined) | 1.7 µM |
| CC(C)CC(=O)c1c(O)cc(O)c(C(=O)CC(C)C)c1O | 1.5 µM |
| CCC(C)C(=O)c1c(O)cc(O)cc1O (centres undefined) | 6 µM |
| CC(C)C(=O)c1c(O)cc(O)cc1O [PHLOROISOBUTYROPHENONE] | 6.6 µM |

Organism: Cavia porcellus
Test: Inhibitory activity of the Compound was tested against LTD4 induced contraction of guinea pig trachea at 1*10e-5 concentration.
Assay type: functional

| Structure (SMILES) | Inhibition |
| --- | --- |
| CCC(C)C(=O)c1c(O)cc(O)cc1O (centres undefined) | 25.4% |

— ChEMBL document CHEMBL1126287, “Analogues of natural phloroglucinols as antagonists against both thromboxane A2 and leukotriene D4” (J Med Chem, 1992)
